Our source for the IC50, Selectivity Index and inhibition values is ChEMBL document CHEMBL1155790 (Bioorg Med Chem, 2008).

The target in one assay is Cholinesterase (Equus caballus, UniProt P81908).
Assay [1] in a line: Selectivity index, IC50 for equine BChE to IC50 for bovine AChE by Ellman's method.
The next assay concerns the target T1, Acetylcholinesterase (Bos taurus, UniProt P23795).
T1 sequence (P23795 whole entry): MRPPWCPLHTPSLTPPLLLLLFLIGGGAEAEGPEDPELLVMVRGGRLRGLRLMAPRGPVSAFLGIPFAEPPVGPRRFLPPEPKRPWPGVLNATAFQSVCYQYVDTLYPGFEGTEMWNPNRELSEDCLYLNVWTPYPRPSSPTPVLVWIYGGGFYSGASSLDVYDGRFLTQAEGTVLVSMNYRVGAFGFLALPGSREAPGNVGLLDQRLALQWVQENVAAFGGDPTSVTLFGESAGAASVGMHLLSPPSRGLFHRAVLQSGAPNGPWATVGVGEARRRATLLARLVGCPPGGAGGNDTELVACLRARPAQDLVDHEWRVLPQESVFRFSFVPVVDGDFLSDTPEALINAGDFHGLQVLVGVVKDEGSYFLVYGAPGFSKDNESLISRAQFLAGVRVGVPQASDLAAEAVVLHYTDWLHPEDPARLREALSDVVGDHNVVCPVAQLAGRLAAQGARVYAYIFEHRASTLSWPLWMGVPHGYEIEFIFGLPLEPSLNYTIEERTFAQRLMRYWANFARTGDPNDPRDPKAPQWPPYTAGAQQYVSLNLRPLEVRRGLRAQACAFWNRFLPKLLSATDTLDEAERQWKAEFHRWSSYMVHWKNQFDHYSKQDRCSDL

In assay [2] the target is T2, Acetylcholinesterase (Bos taurus) (UniProt P23795).
T2 sequence (whole entry): T1 sequence (P23795 whole entry)
Briefly: Inhibition of bovine AChE at 10 uM by Ellman's method.

Assay [3] has as its target T2, Acetylcholinesterase (Bos taurus). The assay can be described thus: Inhibition of bovine AChE at 50 uM by Ellman's method.
Assay [4] has as its target Cholinesterase (Equus caballus) (UniProt P81908). Briefly: Inhibition of equine BChE at 50 uM by Ellman's method.
The target is the same in assay [5]. Briefly: Inhibition of equine BChE at 10 uM by Ellman's method.

The structures appear in SMILES notation.

Cholinesterase, sequence (P81908 whole entry): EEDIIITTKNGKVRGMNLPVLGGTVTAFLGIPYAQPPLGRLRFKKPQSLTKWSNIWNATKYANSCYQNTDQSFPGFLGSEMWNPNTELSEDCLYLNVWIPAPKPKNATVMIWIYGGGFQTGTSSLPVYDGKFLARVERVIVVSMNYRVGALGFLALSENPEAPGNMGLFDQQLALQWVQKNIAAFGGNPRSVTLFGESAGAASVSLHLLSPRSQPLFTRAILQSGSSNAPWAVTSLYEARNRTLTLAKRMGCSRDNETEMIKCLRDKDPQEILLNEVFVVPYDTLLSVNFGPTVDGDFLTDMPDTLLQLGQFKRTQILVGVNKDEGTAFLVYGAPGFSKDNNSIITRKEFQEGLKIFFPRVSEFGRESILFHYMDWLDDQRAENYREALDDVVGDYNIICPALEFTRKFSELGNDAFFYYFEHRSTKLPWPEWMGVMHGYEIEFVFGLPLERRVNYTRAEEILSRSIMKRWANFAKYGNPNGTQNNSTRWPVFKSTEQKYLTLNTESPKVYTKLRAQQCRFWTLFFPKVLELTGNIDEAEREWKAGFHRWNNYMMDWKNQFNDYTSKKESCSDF
Cholinesterase (Equus caballus), sequence (P81908 whole entry): as above

`Cc1c(C)c2ccc(OCCCCOc3cc(O)cc([N+](C)(C)C)c3)cc2oc1=O`: the results for the IC50 against Cholinesterase and on Acetylcholinesterase were 0.708 µM and 0.001 µM, respectively. Also, the Selectivity Index in assay [1] is 708.

As to `CN(Cc1ccccc1)c1cc(O)cc(OCCCCOc2cc(O)cc(N(C)Cc3ccccc3)c2)c1`, the inhibition was 14% in assay [2] and 3% in assay [3].

Take `CN(Cc1ccccc1)c1cc(O)cc(OCCCOc2cc(O)cc(N(C)Cc3ccccc3)c2)c1`: the inhibition in assay [3] worked out at 3%.

Regarding `CN(C)c1cc(O)cc(OCCCOc2cc(O)cc(N(C)Cc3ccccc3)c2)c1`, half-maximal inhibition at Acetylcholinesterase (IC50) was put at 6.17 µM. That is a single-digit micromolar value.

`Cc1c(C)c2ccc(OCCCCOc3cc(O)cc(N(C)Cc4ccccc4)c3)cc2oc1=O`: the inhibition in assay [2] was determined as 15%.

Regarding `Cc1c(C)c2ccc(OCCCOc3cc(O)cc(N(C)C)c3)cc2oc1=O`, the IC50 at Acetylcholinesterase amounted to 0.871 µM.

In turn, `CN(C)c1cc(O)cc(OCCCCOc2cc(O)cc(N(C)C)c2)c1` showed an IC50 against Acetylcholinesterase of 6.46 µM. The inhibition in assay [4] worked out at 25%.

`Cc1c(C)c2ccc(OCCCOc3cc(O)cc(N(C)Cc4ccccc4)c3)cc2oc1=O` showed an inhibition in assay [2] of 8%.

On to `C[N+](C)(C)c1cc(O)cc(OCCCOc2cc(O)cc([N+](C)(C)C)c2)c1`, for which the results for the IC50 against Cholinesterase and against Acetylcholinesterase were 0.718 µM and 0.00049 µM, respectively. For the same molecule, the Selectivity Index in assay [1] is 1460.

Molecule `C=CC[N+](C)(C)c1ccc(CCC(=O)CCc2ccc([N+](C)(C)CC=C)cc2)cc1` had an IC50 on Acetylcholinesterase of 0.008 µM.

On to `C[N+](C)(C)c1cc(O)cc(OCCCCOc2cc(O)cc([N+](C)(C)C)c2)c1`, for which the IC50 against Cholinesterase is 0.715 µM.

For the molecule `C[N+](C)(C)c1cccc(OCCCCOc2cccc([N+](C)(C)C)c2)c1`, the results for the IC50 against Cholinesterase and at Acetylcholinesterase were 2.34 µM and 0.158 µM, respectively. In assay [1], the Selectivity Index was found to be 15.

Turning to `C[N+](C)(C)c1cc(O)cc(OCCCCOc2cc(O)cc([N+](C)(C)Cc3ccccc3)c2)c1`, the IC50 against Acetylcholinesterase worked out at 6.56 µM. This molecule yielded an inhibition in assay [5] of 42%.

In turn, `Cc1c(C)c2ccc(OCCCCOc3cc(O)cc(N(C)C)c3)cc2oc1=O` returned an IC50 against Acetylcholinesterase of 0.275 µM. Also, the inhibition in assay [4] is 25%.

Consider `CN(C)c1cc(O)cc(OCCCOc2cc(O)cc(N(C)C)c2)c1`, for which the IC50 on Acetylcholinesterase amounted to 1.91 µM.

On to `Cc1c(C)c2ccc(OCCCOc3cc(O)cc([N+](C)(C)C)c3)cc2oc1=O`, for which the IC50 against Cholinesterase turned out to be 1.06 µM; against Acetylcholinesterase, 0.0021 µM. For the same molecule, the Selectivity Index in assay [1] was 505.

In turn, `COc1ccc2c(C)c(C)c(=O)oc2c1` yielded an IC50 on Acetylcholinesterase of 42 µM. In addition, the inhibition in assay [5] was found to be 25%.

In the case of `CC[N+](CC)(CCNC(=O)C(=O)NCC[N+](CC)(CC)Cc1ccccc1Cl)Cc1ccccc1Cl` [AMBENONIUM], inhibition against Acetylcholinesterase was half-maximal at 0.00012 µM (IC50). This counts as sub-nanomolar.

At Acetylcholinesterase, `C[N+](C)(C)c1cccc(O)c1` displayed an IC50 of 12 µM. The inhibition in assay [5] was determined as 13%.

Molecule `CN(C)c1cc(O)cc(OCCCCOc2cc(O)cc(N(C)Cc3ccccc3)c2)c1` had an inhibition in assay [2] of 40%.
